Data from the supplement of paper PMC7661543.
± gives the standard deviation of the averaged measurements.

Assays:
Experiment in all cases: relative cell number vs DMSO control (72 h) (% of DMSO); higher = less growth inhibition (more cells)
Settings in all cases: sgRNA knockout: sgNT
[1] = test system: BT-20
Description: (§1)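 QMAP-Seq: a pool of 5 breast cancer cell lines (ZR-75-1, SKBR3, HCC-38, MDA-MB-231, BT-20), each carrying 12 doxycycline-inducible Cas9 sgRNA perturbations (11 knockouts plus non-targeting sgNT), was treated with compounds for 72 h at four 10-fold doses (10 nM-10 uM or 1 nM-1 uM range). Barcodes were amplified and sequenced, and cell number was interpolated from 293T spike-in standard curves. The result is expressed as % of the median of DMSO wells. Two biological replicates.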

[2] = test system: HCC-38
Description: as §1

[3] = test system: MDA-MB-231
Description: as §1

[4] = test system: SKBR3
Description: as §1

[5] = test system: ZR-75-1
Description: as §1

With `CS(=O)(=O)c1cccc(CNc2nc(Nc3ccc4c(c3)CCC(=O)N4)ncc2C(F)(F)F)c1` the relative cell number ([1]; 10 nM) was 118 ± 28, the relative cell number ([1]; 100 nM) was 145 ± 3.4 and the relative cell number ([1]; 1000 nM) was 105.9 ± 0.85. It also gave a relative cell number ([1]; 10000 nM) of 57 ± 3.3, a relative cell number ([2]; 10 nM) of 96.9 ± 21 and a relative cell number ([2]; 100 nM) of 119 ± 18. It also gave a relative cell number ([2]; 1000 nM) of 86.8 ± 25, a relative cell number ([2]; 10000 nM) of 50.5 ± 4.3 and a relative cell number ([3]; 10 nM) of 122 ± 34. It also gave a relative cell number ([3]; 100 nM) of 123.1 ± 0.038, a relative cell number ([3]; 1000 nM) of 103 ± 6.8 and a relative cell number ([3]; 10000 nM) of 32.1 ± 9.6. For the same molecule, the relative cell number ([4]; 10 nM) was 85.7 ± 19, the relative cell number ([4]; 100 nM) was 110.3 ± 0.38 and the relative cell number ([4]; 1000 nM) was 87.3 ± 18. For the same molecule, the relative cell number ([4]; 10000 nM) was 54.4 ± 9.9, the relative cell number ([5]; 10 nM) was 98.8 ± 47 and the relative cell number ([5]; 100 nM) was 170 ± 92. It also gave a relative cell number ([5]; 1000 nM) of 80.9 ± 4.7 and a relative cell number ([5]; 10000 nM) of 45.1 ± 2.2.

Work on `C[C@@H](Oc1cc(-n2cnc3ccc(CN4CCN(C)CC4)cc32)sc1C(N)=O)c1ccccc1C(F)(F)F` yielded a relative cell number ([1]; 10 nM) of 48.1 ± 11, a relative cell number ([1]; 100 nM) of 26.1 ± 17 and a relative cell number ([1]; 1000 nM) of 31.8 ± 0.68. For the same molecule, the relative cell number ([1]; 10000 nM) was 23.3 ± 2.4, the relative cell number ([2]; 10 nM) was 23.8 ± 3.1 and the relative cell number ([2]; 100 nM) was 16.7 ± 4.5. It also gave a relative cell number ([2]; 1000 nM) of 17.3 ± 0.54, a relative cell number ([2]; 10000 nM) of 17.6 ± 4.5 and a relative cell number ([3]; 10 nM) of 40.66 ± 0.27. For the same molecule, the relative cell number ([3]; 100 nM) was 19.5 ± 2.2, the relative cell number ([3]; 1000 nM) was 12.5 ± 0.32 and the relative cell number ([3]; 10000 nM) was 8.66 ± 5.4. It also gave a relative cell number ([4]; 10 nM) of 13.6 ± 4.1, a relative cell number ([4]; 100 nM) of 13.5 ± 1.8 and a relative cell number ([4]; 1000 nM) of 13.4 ± 4.3. It also gave a relative cell number ([4]; 10000 nM) of 23.5 ± 4.7, a relative cell number ([5]; 10 nM) of 112 ± 14 and a relative cell number ([5]; 100 nM) of 22.1 ± 8.8. The relative cell number ([5]; 1000 nM) was 27.7 ± 3.9 and the relative cell number ([5]; 10000 nM) was 29.7 ± 12.

Work on `C[C@@H]1CN(CC(=O)Nc2ccc3c(c2)Cc2cccc(-c4cc(=O)cc(N5CCOCC5)o4)c2S3)C[C@H](C)O1` yielded a relative cell number ([1]; 10 nM) of 73.7 ± 24, a relative cell number ([1]; 100 nM) of 119 ± 3.5 and a relative cell number ([1]; 1000 nM) of 108 ± 8.4. The relative cell number ([1]; 10000 nM) was 62.4 ± 3.5, the relative cell number ([2]; 10 nM) was 89.9 ± 3.7 and the relative cell number ([2]; 100 nM) was 110 ± 4.4. The relative cell number ([2]; 1000 nM) was 76.9 ± 3.3, the relative cell number ([2]; 10000 nM) was 64.3 ± 9.2 and the relative cell number ([3]; 10 nM) was 111 ± 4.9. It also gave a relative cell number ([3]; 100 nM) of 85.1 ± 5.2, a relative cell number ([3]; 1000 nM) of 95.9 ± 20 and a relative cell number ([3]; 10000 nM) of 59.4 ± 6.4. The relative cell number ([4]; 10 nM) was 86.5 ± 26, the relative cell number ([4]; 100 nM) was 95.9 ± 33 and the relative cell number ([4]; 1000 nM) was 87.7 ± 36. For the same molecule, the relative cell number ([4]; 10000 nM) was 33.6 ± 4.6, the relative cell number ([5]; 10 nM) was 95.6 ± 6 and the relative cell number ([5]; 100 nM) was 92.7 ± 26. It also gave a relative cell number ([5]; 1000 nM) of 80.8 ± 9.4 and a relative cell number ([5]; 10000 nM) of 38.7 ± 11.

Work on `C[C@@]1(C(=O)Nc2ccc(F)nc2)CCCN1c1nc(Nc2cc(C3CC3)n[nH]2)c2cccn2n1` yielded a relative cell number ([1]; 10 nM) of 77.5 ± 8.7, a relative cell number ([1]; 100 nM) of 89.5 ± 17 and a relative cell number ([1]; 1000 nM) of 90 ± 11. It also gave a relative cell number ([1]; 10000 nM) of 67.5 ± 16, a relative cell number ([2]; 10 nM) of 87.8 ± 4.9 and a relative cell number ([2]; 100 nM) of 82.5 ± 10. For the same molecule, the relative cell number ([2]; 1000 nM) was 81.5 ± 2.7, the relative cell number ([2]; 10000 nM) was 45.49 ± 0.25 and the relative cell number ([3]; 10 nM) was 126 ± 33. It also gave a relative cell number ([3]; 100 nM) of 96.4 ± 18, a relative cell number ([3]; 1000 nM) of 70.4 ± 5.7 and a relative cell number ([3]; 10000 nM) of 43.2 ± 7.3. For the same molecule, the relative cell number ([4]; 10 nM) was 72 ± 24, the relative cell number ([4]; 100 nM) was 89.9 ± 15 and the relative cell number ([4]; 1000 nM) was 74.8 ± 14. The relative cell number ([4]; 10000 nM) was 66 ± 6.5, the relative cell number ([5]; 10 nM) was 92.7 ± 27 and the relative cell number ([5]; 100 nM) was 73.9 ± 16. It also gave a relative cell number ([5]; 1000 nM) of 36 ± 18 and a relative cell number ([5]; 10000 nM) of 30.8 ± 12.

In the case of `Cc1[nH]c(/C=C2\C(=O)Nc3ccc(S(=O)(=O)N(C)c4cccc(Cl)c4)cc32)c(C)c1C(=O)N1CCN(C)CC1`, the relative cell number ([1]; 10 nM) is reported as 89.8 ± 4.6, the relative cell number ([1]; 100 nM) is reported as 95 ± 19 and the relative cell number ([1]; 1000 nM) is reported as 74.8 ± 2.8. It also gave a relative cell number ([1]; 10000 nM) of 60.9 ± 35, a relative cell number ([2]; 10 nM) of 109 ± 14 and a relative cell number ([2]; 100 nM) of 92.58 ± 0.79. The relative cell number ([2]; 1000 nM) was 90.6 ± 7.8, the relative cell number ([2]; 10000 nM) was 55.2 ± 1.4 and the relative cell number ([3]; 10 nM) was 134 ± 62. It also gave a relative cell number ([3]; 100 nM) of 94.8 ± 19, a relative cell number ([3]; 1000 nM) of 95.3 ± 23 and a relative cell number ([3]; 10000 nM) of 42.5 ± 11. It also gave a relative cell number ([4]; 10 nM) of 90.1 ± 7.7, a relative cell number ([4]; 100 nM) of 102 ± 8.9 and a relative cell number ([4]; 1000 nM) of 87.4 ± 16. It also gave a relative cell number ([4]; 10000 nM) of 59.6 ± 16, a relative cell number ([5]; 10 nM) of 95.1 ± 14 and a relative cell number ([5]; 100 nM) of 97.4 ± 3.6. The relative cell number ([5]; 1000 nM) was 54 ± 27 and the relative cell number ([5]; 10000 nM) was 37.5 ± 6.

Molecule `Cc1c(Cn2c(C)nc3c(C(=O)O)cc(N4CCOCC4)cc32)cccc1C(F)(F)F` has a relative cell number ([1]; 10 nM) of 100 ± 7.3, a relative cell number ([1]; 100 nM) of 117 ± 23 and a relative cell number ([1]; 1000 nM) of 87 ± 10. It also gave a relative cell number ([1]; 10000 nM) of 82.1 ± 1.1, a relative cell number ([2]; 10 nM) of 115 ± 17 and a relative cell number ([2]; 100 nM) of 85.5 ± 2.4. The relative cell number ([2]; 1000 nM) was 108 ± 19, the relative cell number ([2]; 10000 nM) was 102 ± 10 and the relative cell number ([3]; 10 nM) was 105 ± 4.5. It also gave a relative cell number ([3]; 100 nM) of 123 ± 22, a relative cell number ([3]; 1000 nM) of 93.9 ± 27 and a relative cell number ([3]; 10000 nM) of 112 ± 23. It also gave a relative cell number ([4]; 10 nM) of 137 ± 8, a relative cell number ([4]; 100 nM) of 123 ± 22 and a relative cell number ([4]; 1000 nM) of 98.4 ± 25. The relative cell number ([4]; 10000 nM) was 99.1 ± 8.4, the relative cell number ([5]; 10 nM) was 126 ± 2.5 and the relative cell number ([5]; 100 nM) was 98.6 ± 13. The relative cell number ([5]; 1000 nM) was 72.1 ± 7 and the relative cell number ([5]; 10000 nM) was 108 ± 53.
